# Test system: (single deposited) (rabbit) B-cells
# Assay: Co-cultivation of single deposited B-cells with EL-4 B5 feeder cells, quantification of IgG in supernatant by ELISA
# Format: cell-based
# Method: Generally, the 96-well multi well plate in which the co-cultivation was performed was centrifuged after seven days of co-cultivation at 300×g for 5 min. 150 μl supernatant was removed and diluted at a ratio of 2:1 with PBS in a second 96-well multi well plate. The antibody was used at a concentration of 50 ng/ml. If the OD was or exceeded 1 after an incubation time of 5 min. a dilution series of from 0.8 to 108 ng/ml IgG was tested.
# Specifically, a mixture of 0.5 μg/ml of biotinylated mouse anti-rabbit IgG antibody (Sigma-Aldrich) and 0.35 μg/ml anti-rabbit IgG HRP conjugate (Sigma-Aldrich) was transferred to 384 well streptavidin coated microtiter plates (MicroCoat Biotechnologie GmbH). Dilutions of B-cell supernatants in PBS supplemented with 0.5% BSA and 0.05% Tween®-20 were added and incubated for 90 min at RT. After repeated washing (6×) with PBST (phosphate buffered saline with 0.2% Tween®-20) buffer the plates were developed with BM Blue® HRP substrate solution and color formation was measured by absorbance at 370 nm. A commercial rabbit IgG (Sigma-Aldrich) was used as a calibration standard.
# Single cell sorted B-cells were cultured in 96-well plates with 200 μl/well EL-4 B5 medium with Pansorbin Cells (SAC) (Calbiochem (Merck), Darmstadt, Deutschland), EL-4 B5 cells (5×10^4/well) and rabbit thymocyte supernatant (TSN) or cytokine mix (CM) with PMA, respectively, for 7 days at 37° C. in an atmosphere of 5% CO2 in the incubator. B-cell culture supernatants were removed for screening and the cells harvested immediately for variable region gene cloning or frozen at −80° C. in 100 μl RLT buffer (Qiagen, Hilden, Germany).
# [1] = PMA alone, in the absence of cytokines and interleukins
structure (smiles),measurement,setting,value
"CCCCCCCCCCCCCC(=O)O[C@@H]1[C@@H](C)[C@@]2(O)[C@@H](C=C(CO)C[C@]3(O)C(=O)C(C)=C[C@@H]23)[C@@H]2C(C)(C)[C@]12OC(C)=O [PMA, (1aR,1bS,4aR,7aS,7bS,8R,9R,9aS)-9a-(acetyloxy)-4a,7b-dihydroxy-3-(hydroxymethyl)-1,1,6,8-tetramethyl-5-oxo-1a,1b,4,4a,5,7a,7b,8,9,9a-decahydro-H-cyclopropa[3,4]benzo[1,2-e]azulen-9-yl myristate]",IgG+ wells [% total],"PMA 0.002 ng/ml, 0.1×CM",+
same,IgG+ wells [% total],"PMA 0.011 ng/ml, 0.1×CM",+
same,productivity IgG+ [μg/ml],"PMA 0.011 ng/ml, 0.1×CM",+
same,IgG+ wells [% total],"PMA 0.054 ng/ml, 0.1×CM",++++
same,productivity IgG+ [μg/ml],"PMA 0.054 ng/ml, 0.1×CM",+++
same,Average IgG productivity,"PMA 0.095 ng/ml, CM 1x",1.390 µg/mL
same,Number of IgG positive wells [% of total],"PMA 0.095 ng/ml, CM 1x",38.1 % of total
same,productivity IgG+ [μg/ml],"PMA 0.127 ng/ml, 0.032×CM",+
same,IgG+ wells [% total],"PMA 0.127 ng/ml, 0.1×CM",++
same,productivity IgG+ [μg/ml],"PMA 0.127 ng/ml, 0.1×CM",++++
same,IgG+ wells [% total],"PMA 0.225 ng/ml, 0.1×CM",+++++
same,productivity IgG+ [μg/ml],"PMA 0.225 ng/ml, 0.1×CM",+++++
same,IgG+ wells [% total],"PMA 0.3 ng/ml, 0.032×CM",++++
same,productivity IgG+ [μg/ml],"PMA 0.3 ng/ml, 0.032×CM",+++
same,IgG+ wells [% total],"PMA 0.3 ng/ml, 0.1×CM",+++++
same,productivity IgG+ [μg/ml],"PMA 0.3 ng/ml, 0.1×CM",+++++
same,Average IgG productivity,"PMA 0.3 ng/ml, CM 0.01x",1.931 µg/mL
same,Number of IgG positive wells [% of total],"PMA 0.3 ng/ml, CM 0.01x",69.0 % of total
same,Average IgG productivity,"PMA 0.3 ng/ml, CM 0.032x",3.476 µg/mL
same,Number of IgG positive wells [% of total],"PMA 0.3 ng/ml, CM 0.032x",70.2 % of total
same,Average IgG productivity,"PMA 0.3 ng/ml, CM 0.1x",4.450 µg/mL
same,Number of IgG positive wells [% of total],"PMA 0.3 ng/ml, CM 0.1x",67.9 % of total
same,Average IgG productivity,"PMA 0.3 ng/ml, CM 0.32x",2.662 µg/mL
same,Number of IgG positive wells [% of total],"PMA 0.3 ng/ml, CM 0.32x",57.1 % of total
same,Average IgG productivity,"PMA 0.3 ng/ml, CM 1x",0.720 µg/mL
same,Number of IgG positive wells [% of total],"PMA 0.3 ng/ml, CM 1x",17.9 % of total
same,IgG+ wells [% total],"PMA 0.534 ng/ml, 0.032×CM",++
same,productivity IgG+ [μg/ml],"PMA 0.534 ng/ml, 0.032×CM",+++
same,IgG+ wells [% total],"PMA 0.534 ng/ml, 0.1×CM",+++++
same,productivity IgG+ [μg/ml],"PMA 0.534 ng/ml, 0.1×CM",+++
same,IgG+ wells [% total],"PMA 0.712 ng/ml, 0.032×CM",++
same,productivity IgG+ [μg/ml],"PMA 0.712 ng/ml, 0.032×CM",+++
same,IgG+ wells [% total],"PMA 0.712 ng/ml, 0.1×CM",+++
same,productivity IgG+ [μg/ml],"PMA 0.712 ng/ml, 0.1×CM",++
same,IgG+ wells [% total],"PMA 0.949 ng/ml, 0.032×CM",++++
same,productivity IgG+ [μg/ml],"PMA 0.949 ng/ml, 0.032×CM",+++++
same,Average IgG productivity,"PMA 0.95 ng/ml, CM 0x",1.650 µg/mL
same,Number of IgG positive wells [% of total],"PMA 0.95 ng/ml, CM 0x",28.6 % of total
same,Average IgG productivity,"PMA 0.95 ng/ml, CM 0.01x",4.235 µg/mL
same,Number of IgG positive wells [% of total],"PMA 0.95 ng/ml, CM 0.01x",69.0 % of total
same,Average IgG productivity,"PMA 0.95 ng/ml, CM 0.032x",5.340 µg/mL
same,Number of IgG positive wells [% of total],"PMA 0.95 ng/ml, CM 0.032x",67.9 % of total
same,Average IgG productivity,"PMA 0.95 ng/ml, CM 0.1x",1.623 µg/mL
same,Number of IgG positive wells [% of total],"PMA 0.95 ng/ml, CM 0.1x",50.0 % of total
same,Average IgG productivity,"PMA 0.95 ng/ml, CM 0.32x",0.134 µg/mL
same,Number of IgG positive wells [% of total],"PMA 0.95 ng/ml, CM 0.32x",23.8 % of total
same,Average IgG productivity,"PMA 0.95 ng/ml, CM 1x",0.100 µg/mL
same,Number of IgG positive wells [% of total],"PMA 0.95 ng/ml, CM 1x",8.3 % of total
same,IgG+ wells [% total],"PMA 0.95 ng/ml, without CM",+
same,productivity IgG+ [μg/ml],"PMA 0.95 ng/ml, without CM",+
same,IgG+ wells [% total],"PMA 1.266 ng/ml, 0.032×CM",+++
same,productivity IgG+ [μg/ml],"PMA 1.266 ng/ml, 0.032×CM",+++++
same,IgG+ wells [% total],"PMA 1.688 ng/ml, 0.032×CM",+++++
same,productivity IgG+ [μg/ml],"PMA 1.688 ng/ml, 0.032×CM",+++++
same,IgG+ wells [% total],"PMA 1.688 ng/ml, without CM",++
same,productivity IgG+ [μg/ml],"PMA 1.688 ng/ml, without CM",+++
same,IgG+ wells [% total],"PMA 2.25 ng/ml, 0.032×CM",++++
same,productivity IgG+ [μg/ml],"PMA 2.25 ng/ml, 0.032×CM",++++
same,IgG+ wells [% total],"PMA 2.251 ng/ml, without CM",+++++
same,productivity IgG+ [μg/ml],"PMA 2.251 ng/ml, without CM",+++++
same,Average IgG productivity,"PMA 3 ng/ml, CM 0.01x",3.893 µg/mL
same,Number of IgG positive wells [% of total],"PMA 3 ng/ml, CM 0.01x",69.0 % of total
same,Average IgG productivity,"PMA 3 ng/ml, CM 0.032x",3.480 µg/mL
same,Number of IgG positive wells [% of total],"PMA 3 ng/ml, CM 0.032x",72.6 % of total
same,Average IgG productivity,"PMA 3 ng/ml, CM 0.1x",0.363 µg/mL
same,Number of IgG positive wells [% of total],"PMA 3 ng/ml, CM 0.1x",35.7 % of total
same,Average IgG productivity,"PMA 3 ng/ml, CM 0.32x",0.125 µg/mL
same,Number of IgG positive wells [% of total],"PMA 3 ng/ml, CM 0.32x",13.1 % of total
same,Average IgG productivity,"PMA 3 ng/ml, CM 1x",0.351 µg/mL
same,Number of IgG positive wells [% of total],"PMA 3 ng/ml, CM 1x",13.1 % of total
same,IgG+ wells [% total],"PMA 3.999 ng/ml, without CM",+++
same,productivity IgG+ [μg/ml],"PMA 3.999 ng/ml, without CM",+++
same,IgG+ wells [% total],"PMA 5.331 ng/ml, without CM",++++
same,productivity IgG+ [μg/ml],"PMA 5.331 ng/ml, without CM",+++++
same,IgG+ wells [% total],"PMA 7.106 ng/ml, without CM",+++++
same,productivity IgG+ [μg/ml],"PMA 7.106 ng/ml, without CM",++
same,numbers of IgG positive wells,[1],comparable
same,productivity,[1],increased
